Data taken from article PMC8938452.

Test: three-component macrocyclisation: bis(chloroacetamide) (1 eq) + diamine (1.2 eq) + CS2 (8 eq); in situ dithiocarbamate formation then S-alkylation (C-S bond, Cl displacement) at both ends, metal-free, no added base, 15 min
Conditions: the molecule shown is the open-chain precursor, PEG-200, 400.0 mM, 25.0 °C, 0.25 h

`CN(CCN(C)C(=S)SCC(=O)NCCN(C(=O)CCl)c1cccc2ccccc12)C(=S)[S-]` [7] gave a ring closure, isolated yield (16-membered ring) of 84.6%.
`O=C(CCl)NCCCNC(=O)CSC(=S)NCCCCCCNC(=S)[S-]` [5] showed a ring closure, isolated yield (21-membered ring) of 74.7%.
In the case of `O=C(CCl)NCCCNC(=O)CSC(=S)N(CCN(Cc1ccccc1)C(=S)[S-])Cc1ccccc1` [6], the ring closure, isolated yield (17-membered ring) is reported as 69.4%.
With `CCCCN(CCN(CCCC)C(=S)SCC(=O)N(C)CCN(C)C(=O)CCl)C(=S)[S-]` [1] the ring closure, isolated yield (16-membered ring) was 61.3%.
Work on `O=C(CCl)NCCCNC(=O)CSC(=S)NCCCNC(=S)[S-]` [4] yielded a ring closure, isolated yield (18-membered ring) of 85.3%.
`CN(CCN(C)C(=O)CSC(=S)NCCCNC(=S)[S-])C(=O)CCl` [3] gave a ring closure, isolated yield (17-membered ring) of 78.5%.
Molecule `CN(CCN(C)C(=O)CSC(=S)N(C)CCN(C)C(=S)[S-])C(=O)CCl` [2] has a ring closure, isolated yield (16-membered ring) of 24.1%.
